Target: T1, Nuclear factor erythroid 2-related factor 2 (Homo sapiens, UniProt Q16236)
T1 sequence (Q16236 whole entry): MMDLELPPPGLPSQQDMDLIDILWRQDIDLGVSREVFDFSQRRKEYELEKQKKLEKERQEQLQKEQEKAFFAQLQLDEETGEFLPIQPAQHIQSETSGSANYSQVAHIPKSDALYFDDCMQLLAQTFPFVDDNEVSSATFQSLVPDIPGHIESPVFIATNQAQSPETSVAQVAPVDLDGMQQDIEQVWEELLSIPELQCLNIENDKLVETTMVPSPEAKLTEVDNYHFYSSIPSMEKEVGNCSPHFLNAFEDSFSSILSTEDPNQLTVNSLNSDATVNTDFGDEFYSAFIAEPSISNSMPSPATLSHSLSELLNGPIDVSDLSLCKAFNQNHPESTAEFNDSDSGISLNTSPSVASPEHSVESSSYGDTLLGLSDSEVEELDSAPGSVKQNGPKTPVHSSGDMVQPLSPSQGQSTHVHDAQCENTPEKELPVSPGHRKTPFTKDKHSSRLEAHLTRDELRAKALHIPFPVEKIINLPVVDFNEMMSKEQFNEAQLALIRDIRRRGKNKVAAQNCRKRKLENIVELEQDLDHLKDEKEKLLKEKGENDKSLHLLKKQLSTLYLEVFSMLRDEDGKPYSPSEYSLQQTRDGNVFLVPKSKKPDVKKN
Assay: Activation of ED-tagged Nrf2 in human U2OS cells co-expressing Keap1 assessed as induction of NRF2 translocation to nucleus after 6 hrs by beta-galactosidase based chemiluminescent assay
Assay type: cell-based

Row | Structure (SMILES) | EC50 [µM]
1 | COc1ccc(OS(=O)(=O)/C=C/c2cccc(Cl)c2)cc1 | 0.948
2 | COc1ccc(NS(=O)(=O)/C=C/c2ccccc2Cl)cc1 | > 10
3 | COc1cccc(NS(=O)(=O)/C=C/c2ccccc2Cl)c1 | > 10
4 | O=S(=O)(/C=C/c1ccccc1)Nc1ccccc1 | > 10

From ChEMBL document CHEMBL4304782, “Antioxidant, Anti-inflammatory, and Neuroprotective Effects of Novel Vinyl Sulfonate Compounds as Nrf2 Activator” (ACS Med Chem Lett, 2019)
